Assay results published in article PMC6946680, “Modulation of brain cation-Cl^− cotransport via the SPAK kinase inhibitor ZT-1a” (Nature Communications, 2020).
Where “and” joins values, the source holds several entries; their conditions need not be identical. Identical values can stand only once.

Legend:
[1] = Immunoblot of KCC site 1 phosphorylation (KCC3 Thr991) in HEK-293 cells transfected with FLAG-KCC3; type: cell-based, human
[2] = target: human SPAK 452-547(C-term) with WNK peptide (RFQV) (Homo sapiens, UniProt Q9UEW8); assay: Fluorescence polarization of SPAK–WNK peptide interaction; type: binding; conditions: SPAK FL, Fig S5b
[3] = system: NCC pThr46/50/55/60; assay: Pharmacodynamic study, NCC phosphorylation in kidney of naive mice; type: in vivo, mouse; conditions: Fig S8b (kidney); 50 mg/kg
Experimental: (§1) To define ZT-1a efficacy in naive mice in vivo, we examined phosphorylation of SPAK, NKCC1, and NCC in kidney, and phosphorylation of SPAK, NKCC1, and KCC3 in brain, after intraperitoneal (i.p.) administration of either ZT-1a (10, 30, 50, and 100 mg/kg) or Closantel (50 mg/kg as a reference). […]
(§2) 5. Pharmacodynamic (PD) study
(§3) Male C57BL/6j wild-type mice (6 weeks old, Charles River Laboratories Edinburgh UK) were treated with ZT-1a (in DMSO, Sigma) by subcutaneous injection at doses of 0, 3, 10, 30, 50 and 100 mg/kg. 50 mg/kg Closantel was administered as a comparative control. Vehicle control mice were treated with an equal volume of DMSO solution. One hour after administration, mice were sacrificed by cervical dislocation, and kidney and brain tissues were rapidly dissected and snap-frozen in liquid nitrogen. Age- […]
(§4) free conditions at the University of Dundee (UK) as described in our recent study1. Animal experiments and breeding were approved by the University of Dundee ethical committee and performed under a […]
(§5) Policy on the Care, Welfare and Treatment of Animals, and regulations set by the University of Dundee and the U.K. Home Office. […]
(§6) Brain and kidney tissues were collected at 60 min post injection, and proteins subjected to immunoblot were probed with antibodies specific for phosphorylated forms of SPAK,

[4] = system: NKCC1 pThr203/207/212; assay: Pharmacodynamic study, NKCC1 phosphorylation in kidney of naive mice; type: in vivo, mouse; conditions: Fig S8b (kidney); 50 mg/kg
Experimental: as §1, §2, §3, §4, §5, §6

[5] = system: KCC3 pThr1048; assay: Pharmacodynamic study, KCC3 phosphorylation in brain of naive mice; type: in vivo, mouse
Experimental: as §1, §2, §3, §4, §5, §6

[6] = system: NKCC1 pThr203/207/212; assay: Pharmacodynamic study, NKCC1 phosphorylation in brain of naive mice; type: in vivo, mouse
Experimental: as §1, §2, §3, §4, §5, §6

[7] = system: regional cerebral blood flow; assay: Regional cerebral blood flow by laser speckle contrast imaging after tMCAO; type: in vivo, mouse; conditions: single mice
Experimental: Regional cerebral blood flow was measured using a two-dimensional laser speckle contrast analysis system (PeriCam PSI High Resolution with PIMSoft, Perimed)[65]. Isoflurane-anesthetized mice were head-fixed using stereotaxic equipment during imaging. The skin was retracted to expose the intact skull. Images were taken at 19 frames/second with averaging. Average signal intensity was taken from fixed-size (0.5-mm^2) regions of interest drawn over the parietal bone plate on the ipsi (IL)- and contralateral (CL) sides. Percent perfusion values were taken in comparison with the mean values of the pre-ischemic ipsilateral side. Five consecutive images at each time period per animal were averaged for analysis. […]
cerebral blood flow (rCBF) in ischemic mice. a and d Representative two-dimensional laser speckle contrast images of rCBF. Vehicle (DMSO), ZT-1a (A, 2.5 mg/kg), or Closantel (D, 1.25 mg/kg, i.p.) was administered i.p. at 3 hr and again at 8 hr post-reperfusion after MCAO. Pseudocolor scale bar indicates relative signal intensity. b and e No changes of rCBF were detected in the non-ischemic […]
contralateral (CL) hemispheres of vehicle-control or ZT-1a-treated (b) or Closantel-treated mice (e).
Data are mean ± SD, n = 3. c and f Similar reductions and recoveries of rCBF in the ischemic ipsilateral hemispheres (IL) were detected in the ZT-1a-treated (c) or Closantel-treated ischemic mice (f), and neither differed from vehicle-injected mice. Data are mean ± SEM, n = 3.

[8] = system: SPAK pSer373; assay: Immunoblot of SPAK/OSR1 p-Ser373/Ser325 in HEK-293 cells; type: cell-based, human; conditions: single replicates
[9] = system: NKCC1 pThr203/207/212; assay: Immunoblot of NKCC1 p-Thr203/Thr207/Thr212 in HEK-293 cells; type: cell-based, human; conditions: single replicates

SMILES: Cc1cc(C(C#N)c2ccc(Cl)cc2)c(Cl)cc1NC(=O)c1cc(I)cc(I)c1O (stereo not drawn) [Closantel, reference compound]
- T906/KCC2 band intensity ratio ([1]; Hypotonic low Cl, 1 uM, single replicates): 0.202 and 0.217 and 0.223 and 0.249
- T906/KCC2 band intensity ratio ([1]; Hypotonic low Cl, 3 uM, single replicates): 0.23 and 0.214 and 0.223 and 0.251
- T906/KCC2 band intensity ratio ([1]; Hypotonic low Cl, 10 uM, single replicates): 0.186 and 0.19 and 0.176 and 0.21
- T906/KCC2 band intensity ratio ([1]; Isotonic control, 1 uM, single replicates (Fig 2 source data)): 0.244 and 0.296 and 0.316 and 0.327
- T906/KCC2 band intensity ratio ([1]; Isotonic control, 3 uM, single replicates): 0.256 and 0.224 and 0.253 and 0.285
- T906/KCC2 band intensity ratio ([1]; Isotonic control, 10 uM, single replicates): 0.18 and 0.181 and 0.194 and 0.22
- Inhibitor vs SPAK FL (fluorescence polarization signal) ([2]; Inhibitor 1e-5 μM): 127.9 and 118 and 130
- Inhibitor vs SPAK FL (fluorescence polarization signal) ([2]; Inhibitor 0.0001 μM): 125.3 and 112 and 127
- Inhibitor vs SPAK FL (fluorescence polarization signal) ([2]; Inhibitor 0.001 μM): 121.9 and 115.3 and 123
- Inhibitor vs SPAK FL (fluorescence polarization signal) ([2]; Inhibitor 0.003 μM): 123.1 and 116.4 and 120.4
- Inhibitor vs SPAK FL (fluorescence polarization signal) ([2]; Inhibitor 0.01 μM): 124.7 and 111.9 and 117.8
- Inhibitor vs SPAK FL (fluorescence polarization signal) ([2]; Inhibitor 0.03 μM): 123.5 and 114.7 and 122.6
- Inhibitor vs SPAK FL (fluorescence polarization signal) ([2]; Inhibitor 0.1 μM): 126.5 and 109.5 and 116.8
- Inhibitor vs SPAK FL (fluorescence polarization signal) ([2]; Inhibitor 0.3 μM): 114.7 and 105.4 and 109.5
- Inhibitor vs SPAK FL (fluorescence polarization signal) ([2]; Inhibitor 1 μM): 106.2 and 99.8 and 105.3
- Inhibitor vs SPAK FL (fluorescence polarization signal) ([2]; Inhibitor 3 μM): 104.5 and 98.4 and 100.5
- Inhibitor vs SPAK FL (fluorescence polarization signal) ([2]; Inhibitor 10 μM): 103.1 and 97.1 and 101.4
- Inhibitor vs SPAK FL (fluorescence polarization signal) ([2]; Inhibitor 100 μM): 104.1 and 98.1 and 100.6
- pTh46.50.55 / NCC [3]: 0.81 and 1.06 and 0.69 and 0.76
- pTh203.207.212 / NKCC1 [4]: 0.43 and 0.52 and 0.41 and 0.37
- KCC3 phosphorylation (pThr1048) in naive brains ([5]; 60 min after administration): neither drug had reduced
- pTh1048 / KCC3 ([5]; Fig S8a (brain), 50 mg/kg): 0.84 and 0.87 and 0.95 and 0.91
- NKCC1 phosphorylation (pThr203/207/212) in naive brains ([6]; 60 min after administration): neither drug had reduced
- pTh203.207.212 / NKCC1 ([6]; Fig S8a (brain), 50 mg/kg): 0.63 and 0.62 and 0.71 and 0.68
- % CBF ([7]; Fig S10b/S10e, Pre): 100%
- % CBF ([7]; Fig S10b/S10e, Reperfusion 10 min): 84% and 95% and 110%
- % CBF ([7]; Fig S10b/S10e, Reperfusion 20 min): 94% and 89% and 92%
- % CBF ([7]; Fig S10b/S10e, Reperfusion 3 h): 108% and 97% and 120%
- % CBF ([7]; Fig S10b/S10e, Reperfusion 4 h): 105% and 104% and 110%
- % CBF ([7]; Fig S10b/S10e, Reperfusion 24 h): 119% and 83% and 102%
- % CBF ([7]; Fig S10b/S10e, mcao 10 min): 113% and 80% and 120%
- % CBF ([7]; Fig S10b/S10e, mcao 20min): 111% and 75% and 88%
- % CBF ([7]; Fig S10b/S10e, mcao 50 min): 111% and 76% and 90%
- % CBF ([7]; Fig S10c/S10f, Pre): 100%
- % CBF ([7]; Fig S10c/S10f, Reperfusion 10 min): 68% and 56%
- % CBF ([7]; Fig S10c/S10f, Reperfusion 20 min): 65% and 75% and 58%
- % CBF ([7]; Fig S10c/S10f, Reperfusion 3 h): 88% and 84% and 92%
- % CBF ([7]; Fig S10c/S10f, Reperfusion 4 h): 101% and 92% and 90%
- % CBF ([7]; Fig S10c/S10f, Reperfusion 24 h): 120% and 101% and 104%
- % CBF ([7]; Fig S10c/S10f, mcao 10 min): 34% and 30% and 35%
- % CBF ([7]; Fig S10c/S10f, mcao 20min): 37% and 32% and 33%
- % CBF ([7]; Fig S10c/S10f, mcao 50 min): 34% and 33%
- pSPAK/SPAK band intensity ratio ([8]; Hypotonic low Cl, 1 uM): 0.156 and 0.123 and 0.1673 and 0.133
- pSPAK/SPAK band intensity ratio ([8]; Hypotonic low Cl, 3 uM): 0.102 and 0.11 and 0.1063 and 0.108
- pSPAK/SPAK band intensity ratio ([8]; Hypotonic low Cl, 10 uM): 0.032 and 0.058 and 0.043 and 0.041
- pSPAK/SPAK band intensity ratio ([8]; Isotonic control, 1 uM): 0.118 and 0.131 and 0.126 and 0.122
- pSPAK/SPAK band intensity ratio ([8]; Isotonic control, 3 uM): 0.056 and 0.061 and 0.054 and 0.063
- pSPAK/SPAK band intensity ratio ([8]; Isotonic control, 10 uM): 0.039 and 0.027 and 0.033 and 0.031
- pNKCC1/NKCC1 band intensity ratio ([9]; Hypotonic low Cl, 1 uM): 1.007 and 1.145 and 1.103 and 1.12
- pNKCC1/NKCC1 band intensity ratio ([9]; Hypotonic low Cl, 3 uM): 0.767 and 0.631 and 0.6563 and 0.721
- pNKCC1/NKCC1 band intensity ratio ([9]; Hypotonic low Cl, 10 uM): 0.313 and 0.28 and 0.243 and 0.21
- pNKCC1/NKCC1 band intensity ratio ([9]; Isotonic control, 1 uM): 0.204 and 0.171 and 0.186 and 0.195
- pNKCC1/NKCC1 band intensity ratio ([9]; Isotonic control, 3 uM): 0.054 and 0.067 and 0.053 and 0.062
- pNKCC1/NKCC1 band intensity ratio ([9]; Isotonic control, 10 uM): 0.03 and 0.047 and 0.044 and 0.038
